Laboratory results from patent US20260226084A1, “DUAL RAF AND TUBULIN INHIBITORS AND METHODS OF USE THEREOF” (Deciphera Pharmaceuticals, LLC, priority 2023, published 2026).
Like-named read-outs stand apart in the source and are kept apart here.

Assays:
[1] = biological target: T1, B-Raf kinase (SEQ ID NO: 1) (Homo sapiens, UniProt P15056); assay: Biochemical Assay for B-Raf (coupled pyruvate kinase/lactate dehydrogenase assay)
T1 construct: GST (N); purchased Sigma

[2] = biological target: T2, C-Raf kinase (SEQ ID NO: 2) (Homo sapiens, UniProt P04049, Y340D/Y341D); assay: Biochemical Assay for C-Raf (coupled pyruvate kinase/lactate dehydrogenase assay)
T2 construct: C-Raf residues 306-end; Y340D, Y341D with; GST (N); purchased Sigma

[3] = tested on: HCT-116 cells; assay: HCT-116 Cell Proliferation Assay; format: cell-based; conditions: Homo sapiens
Outline: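 IC50 values come from resazurin fluorescence (540 nm excitation, 600 nm emission) added for 4 to 5 h after compound treatment. Treatment: serially diluted compound in triplicate on 375 HCT-116 cells per well in complete McCoy's 5A/10% FBS, 67 to 72 hours, 37 °C, 5% CO2.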

[4] = tested on: HPAF-II cells; assay: HPAF-II Cell Proliferation Assay; format: cell-based; conditions: Homo sapiens, HPAF-II
Outline: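 Viability read-out was resazurin fluorescence (540 nm excitation, 600 nm emission), developed 18–24 h after a 115–120 h compound exposure of 750 HPAF-II cells per well in MEM/10% FBS at 37 °C. Compound was tested as a serial dilution in triplicate, and IC50 values were calculated.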

[5] = biological target: T3, Porcine Brain Tubulin (Sus scrofa, UniProt P02550+P02554); assay: Biochemical Tubulin Polymerization Assay; conditions: Table 3; Tubulin Biochemical assay; read-out: Tubulin Biochem (IC50 class)
T3 construct: Porcine Brain Tubulin (T240); purchased Cytoskeleton, Inc T240; BK011P; host or cells: porcine brain (tissue-purified)

[6] = tested on: tubulin polymerization in HCT-116 cells; assay: Cellular Tubulin Polymerization Assay; format: cell-based; conditions: Homo sapiens, Table 3, read-out: Tubulin Cellular (IC50 class)
Experimental: HCT-116 cells (catalog #CCL-247) are obtained from the American Type Culture Collect (ATCC, Manassas, VA). Briefly, cells are grown in McCoy's 5A supplemented with 10% characterized fetal bovine serum (Invitrogen, Carlsbad, CA) and 1% Penicillin/Streptomycin/L-Glutamine at 37° C., 5% CO2, and 95% humidity. Cells are expanded until reaching 70-95% confluency at which point they are subcultured or harvested for assay use. 450000 cells are added per well in 1500 μL complete growth medium in a tissue culture treated, 12-well plate. Plates are incubated for 18 to 24 h at 37° C., 5% CO2, and 95% humidity. At the end of the incubation, 2000 μL of base culture media is added to each well, followed by a serial dilution of compound. Plates are incubated for an additional 1 h at 37° C., 5% CO2, and 95% humidity. Lysates are generated by the addition of 100 μL Lysis and Microtubule Stabilization Buffer 1 (LMS01, Cytoskeleton Inc, Denver, CO) supplemented with GTP (BST06, Cytoskeleton Inc), ATP (BSA04, Cytoskeleton Inc), and Protease Inhibitor Cocktail Stock (PIC02, Cytoskeleton Inc). Cells are scraped off wells using a rubber cell scraper and collected in a clean 96-well plate. Lysates are centrifuged at 1000×g, 37° C. for 10 min and supernatant fraction is placed into an additional 96-well plate. The remaining pellet fraction is reconstituted in 100 μL LMS01 buffer and sonicated for 10 min. Pellet and Supernatant fractions are probed for α-tubulin via western blot analysis on the Jess System or equivalent (Bio-techne, Minneapolis, MN). Data is analyzed using Prism software (Graphpad, San Diego, CA) to calculate IC50values.

[7] = 1 mM ATP, read-out: BRAF (inhibition of biochemical activity, IC50)
[8] = Table 3, read-out: BRAF (IC50 class)
[9] = 1 mM ATP, read-out: CRAF (inhibition of biochemical activity, IC50)
[10] = Table 3, read-out: CRAF (IC50 class)
[11] = HCT-116, HCT-116 cells, Table 2, read-out: Inhibition of cell proliferation in HCT-116 (IC50 class)
[12] = HCT-116, Table 3, read-out: HCT-116 (IC50 class)
[13] = HPAF-II cells, Table 2, read-out: Inhibition of cell proliferation in HPAF-II (IC50 class)
[14] = Table 3, read-out: HPAF-II (IC50 class)

T3 sequence (P02550 whole entry): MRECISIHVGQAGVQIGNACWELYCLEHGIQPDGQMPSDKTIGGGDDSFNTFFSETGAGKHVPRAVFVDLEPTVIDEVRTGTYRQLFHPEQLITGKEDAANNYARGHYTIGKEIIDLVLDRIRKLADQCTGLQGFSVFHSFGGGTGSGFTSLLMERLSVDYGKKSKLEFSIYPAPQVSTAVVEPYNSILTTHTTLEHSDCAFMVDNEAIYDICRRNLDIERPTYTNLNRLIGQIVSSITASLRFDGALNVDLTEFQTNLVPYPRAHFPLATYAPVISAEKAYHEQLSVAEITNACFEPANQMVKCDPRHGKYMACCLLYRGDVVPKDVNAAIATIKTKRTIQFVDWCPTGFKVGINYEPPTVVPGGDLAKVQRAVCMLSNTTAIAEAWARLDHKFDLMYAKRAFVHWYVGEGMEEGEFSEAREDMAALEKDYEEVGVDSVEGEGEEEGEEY
T3 sequence (P02554 whole entry): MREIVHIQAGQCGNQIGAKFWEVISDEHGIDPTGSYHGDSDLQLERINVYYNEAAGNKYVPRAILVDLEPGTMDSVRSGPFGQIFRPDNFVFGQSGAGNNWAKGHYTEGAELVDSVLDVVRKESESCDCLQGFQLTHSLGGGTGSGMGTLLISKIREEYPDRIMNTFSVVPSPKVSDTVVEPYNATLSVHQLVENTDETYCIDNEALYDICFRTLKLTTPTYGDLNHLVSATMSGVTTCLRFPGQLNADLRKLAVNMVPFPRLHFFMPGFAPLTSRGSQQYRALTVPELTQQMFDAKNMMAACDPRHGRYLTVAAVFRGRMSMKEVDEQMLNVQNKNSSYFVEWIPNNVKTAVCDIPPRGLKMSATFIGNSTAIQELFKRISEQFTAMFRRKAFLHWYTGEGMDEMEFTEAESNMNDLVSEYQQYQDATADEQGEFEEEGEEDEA
T1 sequence (P15056 416-766): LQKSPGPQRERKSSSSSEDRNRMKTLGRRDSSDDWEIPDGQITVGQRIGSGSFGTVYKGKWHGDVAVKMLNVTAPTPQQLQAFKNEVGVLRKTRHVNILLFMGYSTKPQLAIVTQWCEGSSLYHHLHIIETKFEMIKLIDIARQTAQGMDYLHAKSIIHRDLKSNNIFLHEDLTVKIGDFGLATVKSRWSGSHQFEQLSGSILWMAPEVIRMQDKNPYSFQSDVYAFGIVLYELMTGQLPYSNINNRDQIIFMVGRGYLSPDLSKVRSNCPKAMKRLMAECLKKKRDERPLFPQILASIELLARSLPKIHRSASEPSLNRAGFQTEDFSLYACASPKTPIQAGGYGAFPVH
T2 sequence (P04049 307-648 Y340D/Y341D): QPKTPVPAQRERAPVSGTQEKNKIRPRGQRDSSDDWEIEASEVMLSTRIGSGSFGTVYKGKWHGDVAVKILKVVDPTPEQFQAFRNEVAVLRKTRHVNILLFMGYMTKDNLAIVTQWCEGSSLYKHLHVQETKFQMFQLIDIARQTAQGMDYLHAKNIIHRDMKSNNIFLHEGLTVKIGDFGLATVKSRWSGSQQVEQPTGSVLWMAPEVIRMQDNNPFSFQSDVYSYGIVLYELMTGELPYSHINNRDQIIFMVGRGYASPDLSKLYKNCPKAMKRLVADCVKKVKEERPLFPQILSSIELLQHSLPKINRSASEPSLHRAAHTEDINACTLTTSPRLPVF

IC50 [1, 7]	IC50 [1, 8]	IC50 [2, 9]	IC50 [2, 10]	IC50 [3, 11]	IC50 [3, 12]	IC50 [5]	IC50 [6]	SMILES	IC50 [4, 13]	IC50 [4, 14]
100 to 500 nM	100 to 500 nM	< 100 nM	< 100 nM	100 to 500 nM	100 to 500 nM	3000 to 20000 nM	500 to 1000 nM	Cc1ccc(NC(=O)c2cnc(C(F)(F)F)nc2)cc1-c1ccnc(-c2ccnc(NC(=O)C3CC3)c2)c1 [Example 17]	< 100 nM	< 100 nM
< 100 nM	< 100 nM	< 100 nM	< 100 nM	< 100 nM	< 100 nM	< 3000 nM	1000 to 10000 nM	Cc1ccc(NC(=O)c2cc(C(C)(F)F)cnn2)cc1-c1ccnc(-c2ccnc(NC(=O)C3CC3)c2)c1 [Example 57]	< 100 nM	< 100 nM
< 100 nM	< 100 nM	< 100 nM	< 100 nM	100 to 500 nM	100 to 500 nM	3000 to 20000 nM	< 100 nM	Cc1ccc(NC(=O)c2cc(C#N)cnn2)cc1-c1ccnc(-c2ccnc(NC(=O)C3CC3)c2)c1 [Example 96, 5-cyano-N-(3-(2′-(cyclopropanecarboxamido)-[2,4′-bipyridin]-4-yl)-4-methylphenyl)pyridazine-3-carboxamide]	100 to 500 nM	100 to 500 nM
< 100 nM	< 100 nM	< 100 nM	< 100 nM	< 100 nM	< 100 nM	3000 to 20000 nM	< 100 nM	Cc1ccc(NC(=O)c2cc(C3CC3)cnn2)cc1-c1ccnc(-c2ccnc(NC(=O)C3CC3)c2)c1 [Example 43]	100 to 500 nM	100 to 500 nM
< 100 nM	< 100 nM	< 100 nM	< 100 nM	< 100 nM	< 100 nM	< 3000 nM	< 100 nM	Cc1ccc(NC(=O)c2cc(C(F)(F)F)cnn2)cc1-c1ccnc(-c2ccnc(NC(=O)C3CC3)c2)c1 [Example 67]	< 100 nM	< 100 nM
